Test results as given in PMC10862539, “Chelation of Mitochondrial Iron as an Antiparasitic Strategy” (ACS Infectious Diseases, 2024).
Read-outs that look alike come from different tables or passages of the source.

Columns and labels:
L. mexicana (amastigote) = test: Drug sensitivity assay, axenic L. mexicana amastigote (flow cytometry); type: cell-based, Leishmania mexicana; conditions: Leishmania mexicana
Experimental: (§1) All organisms were cultivated according to the conditions summarized in Table S2, which also includes strain specifications. Dose–response curves were obtained by their cultivation on 96 well plates in a 2-fold series dilution of the appropriate drug, in a total volume of 200 μL (with the exception of P. falciparum, where the total volume was 100 μL). Iron supplementation was achieved by mixing the compound with Fe-NTA in an equimolar ratio prior to setting up the experiment. Results were plotted and processed using Prism 8.0 (GraphPad Software). A two-tailed unpaired t-test was performed to assess the significance of the difference between mitoDFO with and without added iron. Selectivity was calculated as the ratio of the average EC50 value for human fibroblasts to the average EC50 value for the appropriate pathogen. All data were obtained from a minimum of three independent biological replicates.

T. gambiense (BSF) = test: Drug sensitivity assay, T. gambiense bloodstream form (resazurine); type: cell-based, Trypanosoma gambiense; conditions: for EC50: Trypanosoma brucei, T. gambiense (BSF), 72 h
Experimental: as §1

C. albicans = test: Drug sensitivity assay, C. albicans (OD600); type: cell-based, Candida albicans; conditions: Candida albicans, C. albicans, 48 h
Experimental: as §1

G. intestinalis = test: Drug sensitivity assay, G. intestinalis (flow cytometry); type: cell-based; conditions: Giardia duodenalis, G. intestinalis, 24 h
Experimental: as §1

C. neoformans = test: Drug sensitivity assay, C. neoformans (OD600); type: cell-based, Cryptococcus neoformans; conditions: Cryptococcus neoformans, C. neoformans, 72 h
Experimental: as §1

[1] = tested on: Trypanosoma brucei 427 bloodstream forms; test: T. brucei growth curves and doubling time (flow cytometry); type: cell-based; conditions: for Average doubling time: calculated between 24 and 48 h
Experimental: Bloodstream T. brucei 427 cells were inoculated to a concentration of […] and incubated with the addition of mitoDFO (0.025 and 0.1 μM) or DFO (2.5 and 10 μM) in aerobic flasks in a total volume of 5 mL in 5% CO2 at 37 °C. Control with no compound was used to obtain reference values. At time points 24, 36, 48, and 72 h, a 20 μL sample was collected, diluted in growth medium, and measured on a Guava EasyCyte 8HT flow cytometer (Luminex) to assess concentration in previously experimentally prepared settings. The culture was simultaneously observed by light microscopy to confirm the cell viability. The growth curve was plotted by using Prism 8.0 (GraphPad Software). All conditions were measured in three biologically independent replicates. Doubling time was calculated between 24 and 48 h time points using the online calculator,[45] and each of the conditions was compared to the untreated culture using a two-tailed unpaired t-test.

P. falciparum = test: Drug sensitivity assay, P. falciparum (SYBR green I); type: cell-based, Plasmodium falciparum; conditions: for EC50: Plasmodium falciparum, P. falciparum, 48 h
Experimental: as §1

[2] = tested on: cytosolic pyruvate kinase; test: Pyruvate kinase activity in cytosolic fraction of treated T. brucei 427; type: cell-based, Trypanosoma brucei; conditions: 0.12 μM compound, 24 h
Experimental: T. brucei 427 bloodstream forms were preincubated for 24 h in appropriate conditions (0.12 μM mitoDFO, 0.12 μM DFO, and no addition) and harvested, and cytosolic and mitochondrial fractions were separated by digitonin fractionation as described previously.[46] Briefly, cells were spun down (1200 g, 15 min, 4 °C) and resuspended in SHE buffer (250 mM sucrose, 25 mM HEPES, 1 mM EDTA, pH 7.4), and protein concentration was measured using a BCA kit (Sigma-Aldrich). Subsequently, cells were transferred into HBSS (Sigma-Aldrich) and digitonin (Calbiochem) was added in the protein/digitonin ratio of 1/0.15 for 4 min and spun (21 000 g, 2 min, 4 °C). […] The activities of cytosolic pyruvate kinase and mitochondrial threonine dehydrogenase were assessed in all conditions using the spectrophotometric assay at […], as described in ref ([46]), and served both as markers of successful fraction preparation and to assess the effect of the studied compounds. Briefly, pyruvate kinase was measured in TEA buffer (0.1 M triethanolamine, 5 mM MgSO4, 50 mM KCl, pH 7.6) with added 2.8 mM phosphoenolpyruvate, 2 mM ADP, 0.3 mM NADH, and lactate dehydrogenase. Threonine dehydrogenase was measured in 0.2 M Tris–HCl buffer, pH 8.6, 0.25 KCl with 120 mM threonine, and 2.5 mM NAD^+. Fumarase was measured at […] in 2 mM Tris–HCl buffer, pH 7.5, with 20 mM malate.

L. major (promastigote) = test: Drug sensitivity assay, L. major promastigote (flow cytometry); type: cell-based; conditions: Leishmania major, L. major (promastigote), 120 h
Experimental: as §1

T. brucei BSF cells = test: Sytox Green assay, percentage of live cells; type: cell-based, Trypanosoma brucei
Experimental: Sytox Green Assay to determine the percentage of live treated and untreated cells at selected time points. T. brucei BSF cells were seeded at a concentration of 2 × 10^5 cells/mL in 5 mL HMI-9 medium in aerobic cultivation flasks. Cells were treated with compounds at final concentration of 0,05 µM, 0,1 µM, 0,25 µM mitoDFO and 10 µM, 100 µM DFO. In addition, there was a group of untreated cells. At defined time points (24, 36, 48, and 72 h), 20 µL samples were collected from each flask. These samples were then diluted tenfold in fresh HMI-9 medium, reaching a final volume of 200 µL, with the addition of 2 µL SYTOX Green Dead Cell Stain (Invitrogen). Following a 30-minute incubation under standard growth conditions, the cells were analyzed using a Guava EasyCyte 8HT flow cyometer (Luminex flow) with detection at 504/523 nm. This entire procedure was conducted in biological triplicates.
Compound Concentration % of live cells

A. castellanii = test: Drug sensitivity assay, A. castellanii (flow cytometry); type: cell-based, Acanthamoeba castellanii; conditions: for EC50: Acanthamoeba castellanii, A. castellanii, 96 h
Experimental: as §1

[3] = iron-free compound, read-out: EC50 –Fe
[4] = pre-treated with equimolar iron, read-out: EC50 +Fe

CC(=O)N(O)CCCCCNC(=O)CCC(=O)N(O)CCCCCNC(=O)CCC(=O)N(O)CCCCCN [DFO, Deferoxamine, reference compound] gave an EC50 (L. mexicana (amastigote); axenic monoculture, read-out: EC50 axenic Leishmania mexicana) greater than 25 µM, an EC50 (L. mexicana (amastigote); iron-free compound, L. mexicana (amastigote), 120 h, read-out: EC50 –Fe) greater than 25 µM and an EC50 (L. mexicana (amastigote); pre-treated with equimolar iron, L. mexicana (amastigote), 120 h, read-out: EC50 +Fe) greater than 25 µM. For the same compound, the “selectivity (for −Fe)” value (T. gambiense (BSF); EC50 human fibroblasts / EC50 T. gambiense (BSF)) was greater than 40, the EC50 (T. gambiense (BSF); [3]) was 2.47 ± 1.16 µM and the EC50 (T. gambiense (BSF); [4]) was greater than 25 µM. For the same compound, the EC50 (C. albicans; [3]) was greater than 100 µM, the EC50 (C. albicans; [4]) was greater than 100 µM and the EC50 (G. intestinalis; [3]) was greater than 100 µM. It also gave an EC50 (G. intestinalis; [4]) greater than 100 µM, an EC50 (C. neoformans; [3]) greater than 100 µM and an EC50 (C. neoformans; [4]) greater than 100 µM. For the same compound, the Average doubling time ([1]; 2.5 μM DFO) was 8.28 h, the Average doubling time ([1]; 10 μM DFO) was 14.17 h and the “cell proliferation (growth curve)” value ([1]; approximately half the EC50 concentration of the compound) was “slows down cell proliferation”. For the same compound, the “selectivity (for −Fe)” value (P. falciparum; EC50 human fibroblasts / EC50 P. falciparum) was greater than 8, the EC50 (P. falciparum; [3]) was 12.7 ± 0.6 µM and the EC50 (P. falciparum; [4]) was greater than 50 µM. For the same compound, the pyruvate kinase activity [2] was “no difference in activity”, the EC50 (L. major (promastigote); [3]) was greater than 25 µM and the EC50 (L. major (promastigote); [4]) was greater than 25 µM. For the same compound, the “% of live cells” value (T. brucei BSF cells; 10 µM DFO, 24h) was 99,1%, the “% of live cells” value (T. brucei BSF cells; 10 µM DFO, 36h) was 97,5% and the “% of live cells” value (T. brucei BSF cells; 10 µM DFO, 48h) was 74,3%. The “% of live cells” value (T. brucei BSF cells; 10 µM DFO, 72h) was 58,6%, the “% of live cells” value (T. brucei BSF cells; 100 µM DFO, 24h) was 95,5% and the “% of live cells” value (T. brucei BSF cells; 100 µM DFO, 36h) was 78,2%. For the same compound, the “% of live cells” value (T. brucei BSF cells; 100 µM DFO, 48h) was 62,1%, the “% of live cells” value (T. brucei BSF cells; 100 µM DFO, 72h) was 54,8% and the EC50 (A. castellanii; [3]) was 8.9 ± 0.6 µM. For the same compound, the EC50 (A. castellanii; [4]) was greater than 50 µM and the “selectivity (for −Fe)” value (A. castellanii; EC50 human fibroblasts / EC50 A. castellanii) was greater than 11.
